# Measurements: patent publication EP4596537A1, “NOVEL FLUORENE DERIVATIVE COMPOUND AND USE THEREOF” (JD Bioscience Inc., priority 2022, dated 2024)
# How the values were obtained:
# [1] = tested on: BALB/c male mice; experiment: Graft-versus-host disease (GvHD) animal model; assay type: in vivo; design: change in body weight: unit not given here; conditions: for body weight of the GvHD in vivo model: compared to control group
# Description: 5-week-old BALB/c male mice were acclimatized for 1 week and irradiated with 800 cGy of total body irradiation. Then, 5 × 10^6 bone marrow cells derived from C57BL/6J and 1 × 10^7 spleen cells were intravenously injected to establish a GvHD in vivo model (positive control). A syngeneic control group was established in the same manner as above, but BALB/c-derived bone marrow cells were selected as the injected bone marrow cells. Compound 1 Daily was established by daily oral gavage of1 mg/kg of Compound 1 to the GvHD in vivo model. Compound 1 Initial only was established by orally administering 1 mg/kg of Compound 1 to the GvHD in vivo model only for 6 days after model induction. The therapeutic effect of Compound 1 was verified by measuring the change in body weight every 3 days for each control and experimental group established as above, and the results are shown in FIG. 11 and Table 4. On day 14, the production of CD4^+IFNg^+ T cells, which is a major factor inducing GvHD, was measured in the spleens isolated from the mice, and the results are shown in FIG. 12 and Table 5.
# [2] = tested on: liver cancer cells; experiment: Growth inhibition (Cell Counting Kit-8), liver cancer cells; assay type: cell-based; conditions: 24 hours, 0.5% FBS
# Description: In order to verify the growth inhibitory effect of Compound 1 on various normal and cancer cell lines, 25 types of cell lines listed in Table 7 below were tested. In detail, each cell was seeded at a density of 2 × 10^4 cells/well in a 96-well plate and cultured for 24 hours, and then the medium was replaced with a medium comprising 0.5% (for cancer cells) or 10% (for normal cells) FBS, and Compound 1 was treated at various concentrations. 24 hours later, 10 µL of Cell Counting Kit-8 (Dojindo Molecular Technologies) was added, and 1 hour later, absorbance at 480 nm was measured using a microplate reader (TECAN SPARK), and the results are shown in FIGS. 15 to 21.
# [3] = tested on: CT26 colorectal cancer cell line; experiment: Anticancer efficacy in CT26 colorectal cancer tumor model; assay type: in vivo, nude mice; conditions: 1.0 mg/kg
# Description: A colorectal cancer model was established by subcutaneously transplanting CT26 colorectal cancer cell line into nude mice. The colorectal cancer model was divided into two groups: vehicle administration group and Compound 1 administration group. […] Similar to Experimental Example 13, tumor size was calculated before drug administration and on days 3, 7, 10, 14, 18, 22, and 24 after drug administration, and body weight was measured before drug administration and on days 7, 14 and 22 after drug administration, which are shown in FIG. 22.
# Additionally, tumors were extracted from the colorectal cancer model, fixed with 4% PFA solution, and subjected to TUNEL assay to determine the degree of apoptosis induction, and the results are shown in FIG. 22. As shown in the middle of FIG. 22, 28% apoptosis was induced in the vehicle administration group, and 72% apoptosis was induced in the 1.0 mg/kg compound 1 administration group, and statistical significance between these values was also verified (*p<0.01 versus the vehicle administration group).
# [4] = tested on: KKAy diabetes mice; experiment: Intraperitoneal glucose tolerance test (IPGTT) in diabetes animal model; assay type: in vivo; conditions: 0.5 mg/kg once a day by oral gavage, 10 weeks; 1 g/kg glucose i.p.; vs vehicle group
# Description: A vehicle (10% DMSO + 0.5% methylcellulose) and the compound of Example 1 (Compound 1) were administered to 6-week-old male KKAy diabetes mice (n = 6 per group) at a dose of 0.5 mg/kg once a day by oral gavage. At 10 weeks of administration, an intraperitoneal glucose tolerance test (IPGTT) was performed by intraperitoneally administering 1 g/kg of glucose, and the results are shown in FIG. 1.
# [5] = tested on: H9C2 cells; experiment: Myocardial infarction cell model (hypoxia-reoxygenation); assay type: cell-based, rat; conditions: 1 µM
# Description: H9C2 cells, which are a rat […] cell line, were seeded at a density of 3 × 10^3 cells/well in a 96-well plate and cultured for 24 hours. The next day, the medium was replaced with FBS-free DMEM and cultured for an additional 24 hours. After replacing the medium with FBS-free DMEM again, 1 µM of Compound 1 was treated and cultured in a hypoxia chamber (1% oxygen, 5% CO2) for 2 hours (hypoxia). After replacing the medium with DMEM with 10% FBS, 1 µM of Compound 1 was treated and cultured in a CO2 incubator for 1 hour (reoxygenation). Apoptosis, mitochondrial superoxide levels, and intracellular calcium levels were measured, and the results are shown in FIGS. 4 and 5, respectively.
# [6] = tested on: PDHE1α S293; experiment: In vitro PDH S293 phosphorylation inhibition (Western blot) in HEK293 cells; assay type: cell-based, human; conditions: Homo sapiens, 5 hours
# Outline: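 HEK293 cells were switched to 0.5% FBS medium and treated with compounds at various concentrations for 5 h. Lysate protein (20 µg) was analysed by Western blot for phospho-PDHE1α S293 alongside total PDHE1α, with inhibition of S293 phosphorylation as the read-out.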
compound,measurement,setting,value
"CC(C(=O)NNc1ccc(F)cc1)n1cc(-c2cc(F)cc3c2-c2ccccc2C3(O)C(F)(F)F)cn1 (stereo not drawn) [Example 1, 2-(4-(2-fluoro-9-hydroxy-9-(trifluoromethyl)-9H-fluoren-4-yl)-1H-pyrazol-1-yl)-N'-(4-fluorophenyl)propanehydrazide]",change in body weight,"[1]; Daily oral gavage 1 mg/kg, D0",0
same,change in body weight,"[1]; Daily oral gavage 1 mg/kg, D3",-14.77
same,change in body weight,"[1]; Daily oral gavage 1 mg/kg, D6",-22.95
same,change in body weight,"[1]; Daily oral gavage 1 mg/kg, D9",-19.07
same,change in body weight,"[1]; Daily oral gavage 1 mg/kg, D12",-16.1959
same,body weight of the GvHD in vivo model,[1]; Daily oral gavage 1 mg/kg,significantly recovered
same,change in body weight,"[1]; Initial only: 1 mg/kg oral for 6 days after model induction, D0",0
same,change in body weight,"[1]; Initial only: 1 mg/kg oral for 6 days after model induction, D3",-11.15
same,change in body weight,"[1]; Initial only: 1 mg/kg oral for 6 days after model induction, D6",-19.01
same,change in body weight,"[1]; Initial only: 1 mg/kg oral for 6 days after model induction, D9",-14.6667
same,change in body weight,"[1]; Initial only: 1 mg/kg oral for 6 days after model induction, D12",-11.99
same,body weight of the GvHD in vivo model,[1]; Initial only: 1 mg/kg oral for 6 days,significantly recovered
same,concentration at which viability began to rapidly decrease to 70% or less,[2],10 µM
same,decrease in tumor growth (tumor volume) compared to vehicle,[3]; day 24,55%
same,change in the body weight,"[3]; days 7, 14, 22",Neither the vehicle administration group nor the compound 1 administration group showed any change in the body weight
same,apoptosis induced in tumor (TUNEL assay),[3]; vehicle group 28%,72%
same,blood glucose increase (IPGTT),[4],significantly suppressed
same,intracellular calcium (Rhod2 staining),[5]; hypoxia-reoxygenation,remarkably reduced
same,mitochondrial superoxide (MitoSOX staining),[5]; hypoxia-reoxygenation,remarkably reduced
same,apoptosis (TUNEL staining),[5]; hypoxia-reoxygenation (H/R),markedly reduced
same,inhibition at 1 µM,[6],≥ 80%
